The results in this text go back to ChEMBL document CHEMBL5291721, “A preclinical secondary pharmacology resource illuminates target-adverse drug reaction associations of marketed drugs” (Nat Commun, 2023).

Where only a bound is given, the exact number is not on record here.

Some targets named below: Cannabinoid receptor 1 (Homo sapiens, UniProt P21554); D(3) dopamine receptor (Homo sapiens, UniProt P35462); Mu-type opioid receptor (Homo sapiens, UniProt P35372).
The target in assay [1] is Beta-2 adrenergic receptor (Homo sapiens, UniProt P07550).
Sequence of Beta-2 adrenergic receptor (P07550 whole entry): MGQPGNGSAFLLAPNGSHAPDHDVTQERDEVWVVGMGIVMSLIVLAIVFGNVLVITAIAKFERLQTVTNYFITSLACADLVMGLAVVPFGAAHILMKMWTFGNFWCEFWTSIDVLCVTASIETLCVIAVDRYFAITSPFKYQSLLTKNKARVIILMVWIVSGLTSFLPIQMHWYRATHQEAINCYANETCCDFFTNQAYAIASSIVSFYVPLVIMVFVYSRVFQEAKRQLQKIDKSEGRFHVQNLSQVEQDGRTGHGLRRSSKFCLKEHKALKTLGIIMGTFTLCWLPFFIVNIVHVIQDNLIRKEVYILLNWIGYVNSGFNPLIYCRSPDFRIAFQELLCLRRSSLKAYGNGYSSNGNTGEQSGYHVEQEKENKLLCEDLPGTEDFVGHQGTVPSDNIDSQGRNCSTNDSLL
Assay [2] addresses Voltage-dependent L-type calcium channel subunit alpha-1C (Rattus norvegicus, UniProt P22002). The class given is functional.
Assay [3] has as its target T1, Muscarinic acetylcholine receptor M2 (Homo sapiens, UniProt P08172).
T1 sequence (P08172 whole entry): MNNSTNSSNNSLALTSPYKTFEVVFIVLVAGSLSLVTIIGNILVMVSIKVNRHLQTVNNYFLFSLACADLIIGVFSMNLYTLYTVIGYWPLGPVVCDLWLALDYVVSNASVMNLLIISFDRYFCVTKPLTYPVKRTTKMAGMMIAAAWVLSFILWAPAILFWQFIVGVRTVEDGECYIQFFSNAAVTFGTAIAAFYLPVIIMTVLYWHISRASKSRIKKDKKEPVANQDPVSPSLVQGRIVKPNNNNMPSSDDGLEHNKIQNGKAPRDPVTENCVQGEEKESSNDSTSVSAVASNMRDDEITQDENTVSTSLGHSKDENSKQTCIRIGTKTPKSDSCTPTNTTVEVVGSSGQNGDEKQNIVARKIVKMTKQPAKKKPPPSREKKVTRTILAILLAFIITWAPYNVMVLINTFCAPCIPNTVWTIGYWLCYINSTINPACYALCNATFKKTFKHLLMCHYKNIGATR
The class given is functional, cell-based.

The target in assay [4] is T2, 5-hydroxytryptamine receptor 1A (Homo sapiens, UniProt P08908).
T2 sequence (P08908 whole entry): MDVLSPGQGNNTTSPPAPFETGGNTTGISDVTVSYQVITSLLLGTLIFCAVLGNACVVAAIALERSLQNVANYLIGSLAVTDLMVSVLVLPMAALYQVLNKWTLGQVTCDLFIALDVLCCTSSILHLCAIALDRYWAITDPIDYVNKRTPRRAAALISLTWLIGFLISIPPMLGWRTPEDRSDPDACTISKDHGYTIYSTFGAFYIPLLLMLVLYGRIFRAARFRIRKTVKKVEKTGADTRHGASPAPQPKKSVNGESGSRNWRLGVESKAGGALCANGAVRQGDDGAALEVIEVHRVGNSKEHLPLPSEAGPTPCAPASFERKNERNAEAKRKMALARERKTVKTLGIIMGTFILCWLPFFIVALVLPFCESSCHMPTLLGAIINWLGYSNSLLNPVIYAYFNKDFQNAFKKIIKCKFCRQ
It counts as functional, cell-based.

The target of the next assay is T3, Progesterone receptor (Homo sapiens, UniProt P06401).
T3 sequence (P06401 whole entry): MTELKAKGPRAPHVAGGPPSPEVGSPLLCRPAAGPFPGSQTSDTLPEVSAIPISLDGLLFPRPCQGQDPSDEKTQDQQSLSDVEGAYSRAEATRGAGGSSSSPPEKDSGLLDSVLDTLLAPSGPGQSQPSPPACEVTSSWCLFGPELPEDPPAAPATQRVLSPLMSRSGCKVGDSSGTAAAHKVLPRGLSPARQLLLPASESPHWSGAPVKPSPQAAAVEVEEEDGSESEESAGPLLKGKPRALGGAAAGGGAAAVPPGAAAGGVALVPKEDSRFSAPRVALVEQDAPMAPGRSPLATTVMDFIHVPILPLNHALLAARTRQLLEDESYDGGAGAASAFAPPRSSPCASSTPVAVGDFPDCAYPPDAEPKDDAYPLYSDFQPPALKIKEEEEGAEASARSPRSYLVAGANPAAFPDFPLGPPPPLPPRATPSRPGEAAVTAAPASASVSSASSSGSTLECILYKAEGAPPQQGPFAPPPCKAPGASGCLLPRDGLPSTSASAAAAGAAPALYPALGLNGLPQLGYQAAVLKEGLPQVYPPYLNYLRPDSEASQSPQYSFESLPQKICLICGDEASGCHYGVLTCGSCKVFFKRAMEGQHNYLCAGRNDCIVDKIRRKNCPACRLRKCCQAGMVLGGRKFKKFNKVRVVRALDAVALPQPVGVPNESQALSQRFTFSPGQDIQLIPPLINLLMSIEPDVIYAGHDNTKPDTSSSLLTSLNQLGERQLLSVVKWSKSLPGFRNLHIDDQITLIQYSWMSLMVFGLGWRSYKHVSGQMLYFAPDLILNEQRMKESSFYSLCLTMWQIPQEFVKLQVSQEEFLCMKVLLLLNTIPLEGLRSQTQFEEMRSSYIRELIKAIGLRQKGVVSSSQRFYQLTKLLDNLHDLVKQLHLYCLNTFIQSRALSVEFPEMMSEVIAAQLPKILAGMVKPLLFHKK
It counts as functional.

In assay [5] the target is T2, 5-hydroxytryptamine receptor 1A.
Assay [6] concerns the target T4, Thromboxane A2 receptor (Homo sapiens, UniProt P21731).
T4 sequence (P21731 whole entry): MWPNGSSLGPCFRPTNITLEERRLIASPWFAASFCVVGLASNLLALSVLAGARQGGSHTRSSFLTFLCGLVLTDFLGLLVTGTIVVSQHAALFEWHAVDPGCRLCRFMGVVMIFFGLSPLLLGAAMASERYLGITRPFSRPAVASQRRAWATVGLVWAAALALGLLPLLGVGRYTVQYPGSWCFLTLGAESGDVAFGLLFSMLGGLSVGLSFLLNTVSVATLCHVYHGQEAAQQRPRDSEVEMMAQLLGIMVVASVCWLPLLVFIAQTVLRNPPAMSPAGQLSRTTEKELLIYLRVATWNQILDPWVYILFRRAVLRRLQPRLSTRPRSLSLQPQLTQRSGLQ
The class given is functional, cell-based.

Assay [7] has as its target T4, Thromboxane A2 receptor. The class given is functional, cell-based. This is another data set of the same source.
The target in assay [8] is 5-hydroxytryptamine receptor 2B (Homo sapiens, UniProt P41595). The class given is functional, cell-based.
Sequence of 5-hydroxytryptamine receptor 2B (P41595 whole entry): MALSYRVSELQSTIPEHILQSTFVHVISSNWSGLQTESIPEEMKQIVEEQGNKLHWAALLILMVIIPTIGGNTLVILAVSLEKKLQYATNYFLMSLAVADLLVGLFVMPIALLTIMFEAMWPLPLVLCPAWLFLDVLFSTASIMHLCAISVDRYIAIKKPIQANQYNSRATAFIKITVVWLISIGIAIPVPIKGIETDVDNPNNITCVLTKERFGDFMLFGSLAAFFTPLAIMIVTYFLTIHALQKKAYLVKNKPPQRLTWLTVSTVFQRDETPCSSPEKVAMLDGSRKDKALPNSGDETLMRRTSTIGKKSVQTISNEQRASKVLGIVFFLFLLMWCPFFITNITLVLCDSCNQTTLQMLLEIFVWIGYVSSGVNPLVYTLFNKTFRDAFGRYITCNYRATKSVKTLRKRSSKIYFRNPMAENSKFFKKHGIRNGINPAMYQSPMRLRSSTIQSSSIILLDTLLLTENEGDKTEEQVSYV
In assay [9] the target is Prostaglandin G/H synthase 1 (Homo sapiens, UniProt P23219). The class given is functional.
Sequence of Prostaglandin G/H synthase 1 (P23219 whole entry): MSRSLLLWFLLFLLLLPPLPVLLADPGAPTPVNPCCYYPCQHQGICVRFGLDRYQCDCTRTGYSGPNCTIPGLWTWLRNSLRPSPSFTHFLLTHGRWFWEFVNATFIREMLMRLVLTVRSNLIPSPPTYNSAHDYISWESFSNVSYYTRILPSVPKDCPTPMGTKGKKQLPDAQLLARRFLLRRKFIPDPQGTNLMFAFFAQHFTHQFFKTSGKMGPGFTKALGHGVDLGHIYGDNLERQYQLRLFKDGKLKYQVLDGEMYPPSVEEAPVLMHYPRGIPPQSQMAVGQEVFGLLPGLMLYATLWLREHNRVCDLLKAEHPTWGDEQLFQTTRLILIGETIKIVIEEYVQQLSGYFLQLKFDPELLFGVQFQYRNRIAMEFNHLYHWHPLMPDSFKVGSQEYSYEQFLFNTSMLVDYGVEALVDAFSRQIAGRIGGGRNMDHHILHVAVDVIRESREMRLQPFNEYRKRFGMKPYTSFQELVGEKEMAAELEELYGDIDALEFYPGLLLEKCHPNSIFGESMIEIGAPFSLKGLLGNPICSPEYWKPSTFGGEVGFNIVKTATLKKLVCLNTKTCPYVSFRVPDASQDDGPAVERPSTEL
Further: assay procedure not described here.

Sequence of Cannabinoid receptor 1 (P21554 whole entry): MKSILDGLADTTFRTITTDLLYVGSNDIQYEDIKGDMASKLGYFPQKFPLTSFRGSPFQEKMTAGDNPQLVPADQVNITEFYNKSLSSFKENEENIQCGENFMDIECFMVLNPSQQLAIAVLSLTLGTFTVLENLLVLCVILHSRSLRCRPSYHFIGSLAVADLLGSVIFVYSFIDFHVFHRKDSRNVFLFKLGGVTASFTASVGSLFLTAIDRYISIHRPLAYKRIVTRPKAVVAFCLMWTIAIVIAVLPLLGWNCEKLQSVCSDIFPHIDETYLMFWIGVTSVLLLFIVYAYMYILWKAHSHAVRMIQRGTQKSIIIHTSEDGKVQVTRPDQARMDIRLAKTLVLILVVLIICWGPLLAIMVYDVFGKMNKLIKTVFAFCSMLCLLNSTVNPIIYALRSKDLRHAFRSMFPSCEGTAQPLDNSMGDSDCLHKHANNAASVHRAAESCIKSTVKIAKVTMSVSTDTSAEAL
Sequence of Voltage-dependent L-type calcium channel subunit alpha-1C (P22002 whole entry): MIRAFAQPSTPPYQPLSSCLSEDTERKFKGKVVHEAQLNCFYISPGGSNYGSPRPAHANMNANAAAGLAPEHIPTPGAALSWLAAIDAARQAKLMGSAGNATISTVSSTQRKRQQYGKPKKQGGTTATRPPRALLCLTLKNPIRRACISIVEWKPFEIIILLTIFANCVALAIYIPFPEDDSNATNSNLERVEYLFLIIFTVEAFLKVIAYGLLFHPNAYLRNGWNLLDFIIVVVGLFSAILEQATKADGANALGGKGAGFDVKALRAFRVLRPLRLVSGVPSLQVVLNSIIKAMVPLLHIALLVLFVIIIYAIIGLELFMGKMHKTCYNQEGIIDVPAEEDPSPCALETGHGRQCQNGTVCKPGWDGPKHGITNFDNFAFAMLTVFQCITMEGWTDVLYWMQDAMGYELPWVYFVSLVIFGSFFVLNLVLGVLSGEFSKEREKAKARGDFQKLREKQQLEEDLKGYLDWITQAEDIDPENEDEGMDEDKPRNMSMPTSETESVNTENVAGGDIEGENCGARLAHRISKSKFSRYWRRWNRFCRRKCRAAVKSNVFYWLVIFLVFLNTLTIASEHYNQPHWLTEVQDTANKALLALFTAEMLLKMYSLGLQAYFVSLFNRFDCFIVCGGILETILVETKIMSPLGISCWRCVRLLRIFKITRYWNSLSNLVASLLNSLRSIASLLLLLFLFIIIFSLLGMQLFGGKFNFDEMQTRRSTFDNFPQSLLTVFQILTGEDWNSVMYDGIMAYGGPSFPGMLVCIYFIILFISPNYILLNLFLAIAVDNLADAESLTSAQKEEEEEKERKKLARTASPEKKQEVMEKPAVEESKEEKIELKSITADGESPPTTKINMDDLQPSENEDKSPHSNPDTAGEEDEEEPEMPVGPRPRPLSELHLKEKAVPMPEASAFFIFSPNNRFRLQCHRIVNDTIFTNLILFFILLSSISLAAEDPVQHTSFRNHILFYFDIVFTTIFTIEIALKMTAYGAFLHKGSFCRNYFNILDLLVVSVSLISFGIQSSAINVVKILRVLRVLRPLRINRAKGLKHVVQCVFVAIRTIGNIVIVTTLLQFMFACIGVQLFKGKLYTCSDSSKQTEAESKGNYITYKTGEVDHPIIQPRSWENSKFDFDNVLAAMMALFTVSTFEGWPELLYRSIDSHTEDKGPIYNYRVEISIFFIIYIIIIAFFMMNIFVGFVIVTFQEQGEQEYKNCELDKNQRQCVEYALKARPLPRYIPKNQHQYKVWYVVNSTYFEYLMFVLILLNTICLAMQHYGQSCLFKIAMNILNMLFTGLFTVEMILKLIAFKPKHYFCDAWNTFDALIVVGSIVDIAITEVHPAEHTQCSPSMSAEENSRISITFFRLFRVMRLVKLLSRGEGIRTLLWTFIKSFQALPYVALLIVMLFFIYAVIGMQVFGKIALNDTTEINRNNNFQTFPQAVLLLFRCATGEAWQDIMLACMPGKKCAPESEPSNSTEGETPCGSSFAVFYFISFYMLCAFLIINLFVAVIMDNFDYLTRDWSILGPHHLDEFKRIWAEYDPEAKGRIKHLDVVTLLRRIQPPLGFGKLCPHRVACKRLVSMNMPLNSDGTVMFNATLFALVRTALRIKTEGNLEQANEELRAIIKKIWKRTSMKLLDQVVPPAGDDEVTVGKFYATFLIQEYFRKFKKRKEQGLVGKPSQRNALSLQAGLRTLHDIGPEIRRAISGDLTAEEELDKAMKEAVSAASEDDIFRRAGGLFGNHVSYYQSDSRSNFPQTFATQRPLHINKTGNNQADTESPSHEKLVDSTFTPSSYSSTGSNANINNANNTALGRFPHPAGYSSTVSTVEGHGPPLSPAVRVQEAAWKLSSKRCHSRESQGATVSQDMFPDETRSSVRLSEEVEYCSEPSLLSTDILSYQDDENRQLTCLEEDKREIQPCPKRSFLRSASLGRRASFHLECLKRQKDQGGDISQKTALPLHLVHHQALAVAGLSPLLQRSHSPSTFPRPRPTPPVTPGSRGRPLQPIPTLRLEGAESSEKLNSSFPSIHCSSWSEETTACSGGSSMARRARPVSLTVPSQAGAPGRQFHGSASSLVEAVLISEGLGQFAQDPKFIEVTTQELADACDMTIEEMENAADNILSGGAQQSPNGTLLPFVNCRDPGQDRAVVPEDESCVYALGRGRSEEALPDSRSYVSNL
Sequence of D(3) dopamine receptor (P35462 whole entry): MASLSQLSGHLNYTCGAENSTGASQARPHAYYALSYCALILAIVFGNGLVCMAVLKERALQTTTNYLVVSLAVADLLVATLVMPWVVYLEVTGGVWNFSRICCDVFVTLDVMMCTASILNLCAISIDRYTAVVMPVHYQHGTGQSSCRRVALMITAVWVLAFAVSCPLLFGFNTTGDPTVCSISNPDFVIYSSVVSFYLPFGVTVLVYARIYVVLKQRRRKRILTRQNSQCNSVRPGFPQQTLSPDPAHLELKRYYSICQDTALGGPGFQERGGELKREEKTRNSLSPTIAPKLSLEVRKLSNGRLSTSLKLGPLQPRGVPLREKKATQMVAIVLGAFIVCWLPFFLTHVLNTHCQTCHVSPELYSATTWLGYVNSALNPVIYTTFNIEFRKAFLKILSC
Sequence of Mu-type opioid receptor (P35372 whole entry): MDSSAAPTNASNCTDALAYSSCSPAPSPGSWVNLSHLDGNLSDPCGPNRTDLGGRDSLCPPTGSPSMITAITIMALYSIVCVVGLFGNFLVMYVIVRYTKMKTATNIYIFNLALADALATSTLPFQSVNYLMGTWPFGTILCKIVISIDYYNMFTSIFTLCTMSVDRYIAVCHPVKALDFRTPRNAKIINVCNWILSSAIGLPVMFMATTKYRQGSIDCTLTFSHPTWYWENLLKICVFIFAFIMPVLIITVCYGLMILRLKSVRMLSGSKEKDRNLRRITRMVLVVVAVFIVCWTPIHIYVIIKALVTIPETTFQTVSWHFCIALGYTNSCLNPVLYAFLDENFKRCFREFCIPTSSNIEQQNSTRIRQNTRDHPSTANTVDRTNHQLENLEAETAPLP

What is called AC50 is the concentration giving half of the maximal activity seen. Regarding `CCC[C@H](NC(=O)[C@@H]1[C@H]2CCC[C@H]2CN1C(=O)[C@@H](NC(=O)[C@@H](NC(=O)c1cnccn1)C1CCCCC1)C(C)(C)C)C(=O)C(=O)NC1CC1`, the AC50 (in assay [1]; in [2]; at Cannabinoid receptor 1) was more than 10 µM throughout.
Regarding `CC(=O)N[C@@H](CS)C(=O)O` [ACETYLCYSTEINE], the AC50 (in [3]; in assay [4]; on Progesterone receptor) was more than 30 µM throughout.
On to `CN1CCC(=C2c3ccccc3CCc3cccnc32)CC1` [AZATADINE], for which the half-maximal activity concentration (AC50) is more than 10 µM in assay [1], more than 10 µM in assay [2], 0.08 µM in assay [3] and more than 10 µM at Cannabinoid receptor 1.
For `CCCCC(=O)O[C@]1(C(=O)CO)[C@@H](C)C[C@H]2[C@@H]3CCC4=CC(=O)C=C[C@]4(C)[C@@]3(F)[C@@H](O)C[C@@]21C` [BETAMETHASONE VALERATE], the concentration at half-maximal activity (AC50) (in [1]; in [2]; in assay [3]; on Cannabinoid receptor 1) was more than 10 µM each time.
Turning to `C/N=C(\NC)NCc1ccccc1` [BETHANIDINE], the concentration at half-maximal activity (AC50) (in [3]; in assay [4]; on Progesterone receptor) was more than 30 µM throughout.
For `COCC1=C(C(=O)O)N2C(=O)[C@@H](NC(=O)/C(=N\OC)c3csc(N)n3)[C@H]2SC1` [CEFPODOXIME], the AC50 (in [1]; in [2]; in assay [3]; in assay [4]; at Progesterone receptor) was more than 30 µM throughout.
Take `C[C@]12CCC(=O)C(O)=C1CC[C@@H]1[C@@H]2CC[C@]2(C)C(=O)CC[C@@H]12` [FORMESTANE]: the AC50 in [1] was more than 30 µM; in assay [2], more than 30 µM; in assay [3], more than 30 µM; in assay [4] it was more than 30 µM; on Progesterone receptor, 3.7 µM.
As to `Cc1cnc(C(=O)NCCc2ccc(S(=O)(=O)NC(=O)NC3CCCCC3)cc2)cn1` [GLIPIZIDE], the AC50 is more than 10 µM in assay [1]; more than 10 µM in assay [4]; 29.9 µM in assay [5]; more than 30 µM at Thromboxane A2 receptor [6]; more than 30 µM at Thromboxane A2 receptor [7].
Turning to `Oc1ccc2c(c1)CC[C@H](c1ccccc1)[C@@H]2c1ccc(OCCN2CCCC2)cc1` [LASOFOXIFENE], the AC50 (in assay [4]; on Progesterone receptor) was more than 30 µM in each case.
On to `CC(C(=O)O)c1ccc(CC2CCCC2=O)cc1` (stereo not drawn) [LOXOPROFEN], for which the half-maximal activity concentration (AC50) (in assay [1]; in assay [2]; in assay [3]; in assay [4]; on Progesterone receptor) was more than 30 µM each time.
As to `O=[N+]([O-])c1ccc(O)c2ncccc12` [NITROXOLINE], the concentration at half-maximal activity (AC50) in [3] was more than 30 µM; on D(3) dopamine receptor, 20.4 µM; in assay [4], more than 30 µM; in [5], more than 30 µM; in [8] it was more than 30 µM; on Mu-type opioid receptor, more than 30 µM. Besides, the half-maximal activity concentration (AC50) (in assay [9]; at Thromboxane A2 receptor [6]; on Thromboxane A2 receptor [7]) was more than 30 µM throughout.
Consider `C#C[C@]1(OC(C)=O)CC[C@H]2[C@@H]3CCC4=C/C(=N/O)CC[C@@H]4[C@H]3CC[C@@]21CC` [NORGESTIMATE], for which the AC50 in [1] is more than 30 µM; in assay [2] it was more than 30 µM; in assay [3], more than 30 µM; in assay [4], more than 30 µM; at Progesterone receptor, 0.02 µM.
Take `NCC(CC(=O)O)c1ccccc1` (stereo not drawn) [PHENIBUT]: the concentration at half-maximal activity (AC50) (on D(3) dopamine receptor; in assay [5]; in [8]; at Mu-type opioid receptor; in assay [9]; at Thromboxane A2 receptor [6]) was more than 30 µM each time. Besides, at Thromboxane A2 receptor [7], the AC50 was more than 30 µM.
For `CC[C@@H]([C@H](C)O)n1ncn(-c2ccc(N3CCN(c4ccc(OC[C@@H]5CO[C@@](Cn6cncn6)(c6ccc(F)cc6F)C5)cc4)CC3)cc2)c1=O` [POSACONAZOLE], the AC50 (at D(3) dopamine receptor; in assay [5]; in assay [8]; on Mu-type opioid receptor; on Progesterone receptor; in assay [9]) was more than 30 µM throughout. For the same compound, the AC50 on Thromboxane A2 receptor [6] was more than 30 µM; at Thromboxane A2 receptor [7], more than 1 µM.
Consider `CCCN[C@H]1CCc2nc(N)sc2C1` [PRAMIPEXOLE], for which the AC50 is more than 30 µM in assay [1]; more than 10 µM in [2]; more than 10 µM in [3]; more than 10 µM in assay [4]; more than 30 µM on Progesterone receptor.
Regarding `Cc1ncc(COP(=O)(O)O)c(C=O)c1O` [PYRIDOXAL PHOSPHATE ANHYDROUS], the AC50 at D(3) dopamine receptor is more than 30 µM; in [5], more than 30 µM; in assay [8], more than 30 µM; on Mu-type opioid receptor, more than 30 µM; in assay [9], 6.68 µM; on Thromboxane A2 receptor [6] it was more than 30 µM. The compound also had an AC50 on Thromboxane A2 receptor [7] of more than 30 µM.
Turning to `c1ccc2c(c1)CCc1ccccc1N2C1CN2CCC1CC2` (stereo not drawn) [QUINUPRAMINE], the concentration at half-maximal activity (AC50) on D(3) dopamine receptor was 6.47 µM; in [5], 23.3 µM; in assay [8], more than 30 µM; on Mu-type opioid receptor, 1.84 µM; in assay [9] it was more than 30 µM; at Thromboxane A2 receptor [6], more than 30 µM. This compound also showed an AC50 at Thromboxane A2 receptor [7] of more than 30 µM.
Consider `C[C@H](Cc1cc2c(c(C(N)=O)c1)N(CCCO)CC2)NCCOc1ccccc1OCC(F)(F)F` [SILODOSIN], for which the AC50 on D(3) dopamine receptor is 0.0483 µM; in assay [5], 0.003 µM; in [8], more than 30 µM; on Mu-type opioid receptor it was 3.34 µM; in assay [9], 15 µM; on Thromboxane A2 receptor [6] it was more than 30 µM. Moreover, the half-maximal activity concentration (AC50) at Thromboxane A2 receptor [7] is more than 30 µM.
On to `CC1=CCC(C(C)(C)O)CC1O` (stereo not drawn) [SOBREROL], for which the AC50 (on D(3) dopamine receptor; in [5]; in assay [8]; on Mu-type opioid receptor; in assay [9]; at Thromboxane A2 receptor [6]) was more than 30 µM throughout. The concentration at half-maximal activity (AC50) at Thromboxane A2 receptor [7] is more than 30 µM.
As for `CCOC(=O)N1CSC[C@H]1C(=O)O` [TELMESTEINE], the AC50 (on D(3) dopamine receptor; in assay [5]; in [8]; on Mu-type opioid receptor; in assay [9]; on Thromboxane A2 receptor [6]) was more than 30 µM each time. On Thromboxane A2 receptor [7], the AC50 is more than 30 µM.
